Data: ChEMBL document CHEMBL5050844 (2019)

Columns and labels:
[1] = molecular target: T1, E3 ubiquitin-protein ligase CBL-B (Homo sapiens, UniProt Q13191); assay: Inhibition of N-terminal Avi-tagged human CBL-B (36 to 427 residues) incubated with 30 nM Src kinase for 1.5 hrs followed by incubation with fluorescently labeled UbcH5B-Ub for 1 hr and measured by TR-FRET assay
[2] = molecular target: T1, E3 ubiquitin-protein ligase CBL-B; assay: Binding affinity towards N-terminal biotinylated Avi-tagged human CBL-B (36 to 427 residues) measured by surface plasmon resonance assay
[3] = molecular target: T1, E3 ubiquitin-protein ligase CBL-B; assay: Inhibition of N-terminal Avi-tagged human CBL-B (36 to 427 residues) incubated with 60 nM Src kinase for 1.5 hrs followed by incubation with fluorescently labeled UbcH5B-Ub for 1 hr and measured by TR-FRET assay; format: single protein
[4] = Induction of anti-CD3/CD28 antibodies-stimulated human T cell activation at 1 uM assessed fold increase in IL-2 secretion measured by ELISA assay; format: functional, T cell line
[5] = Induction of anti-CD3/CD28 antibodies-stimulated human T cell activation at 0.3 uM assessed fold increase in IL-2 secretion measured by ELISA assay; format: functional, T cell line
[6] = Induction of anti-CD3 antibodies-stimulated human T cell activation at 1 uM assessed fold increase in IL-2 secretion measured by ELISA assay; format: functional, T cell line; further: reference of the scale not given here
[7] = Induction of anti-CD3/CD28 antibodies-stimulated human T cell activation at 1 uM assessed fold increase in CD25 expression measured by ELISA assay; format: functional, T cell line
[8] = Induction of anti-CD3/CD28 antibodies-stimulated human T cell activation at 0.3 uM assessed fold increase in CD25 expression measured by ELISA assay; format: functional, T cell line
[9] = Induction of anti-CD3 antibodies-stimulated human T cell activation at 1 uM assessed fold increase in CD25 expression measured by ELISA assay; format: functional, T cell line; further: reference of the scale not given here
[10] = Induction of anti-CD3 antibodies-stimulated human CD4+ T cell activation in immunocompetent mouse assessed fold increase in CD25 expression at 90 mg/kg, po administered twice a day; format: functional; further: reference of the scale not given here
[11] = Induction of anti-CD3 antibodies-stimulated human CD4+ T cell activation in immunocompetent mouse assessed fold increase in CD25 expression at 135 mg/kg, po administered twice a day; format: functional; further: reference of the scale not given here
[12] = Induction of anti-CD3 antibodies-stimulated human CD4+ T cell activation in immunocompetent mouse assessed fold increase in CD25 expression at 180 mg/kg, po administered twice a day; format: functional; further: reference of the scale not given here
[13] = Induction of anti-CD3 antibodies-stimulated human CD8+ T cell activation in immunocompetent mouse assessed fold increase in CD25 expression at 90 mg/kg, ip administered thrice a day; format: functional; further: reference of the scale not given here
[14] = Induction of anti-CD3 antibodies-stimulated human CD8+ T cell activation in immunocompetent mouse assessed fold increase in CD25 expression at 90 mg/kg, po administered twice a day; format: functional; further: reference of the scale not given here
[15] = Induction of anti-CD3 antibodies-stimulated human CD8+ T cell activation in immunocompetent mouse assessed fold increase in CD25 expression at 135 mg/kg, po administered twice a day; format: functional; further: reference of the scale not given here
[16] = Induction of anti-CD3 antibodies-stimulated human CD8+ T cell activation in immunocompetent mouse assessed fold increase in CD25 expression at 180 mg/kg, po administered twice a day; format: functional; further: reference of the scale not given here
[17] = Induction of anti-CD3/CD28 antibodies-stimulated human T cell activation at 4 uM assessed fold increase in IL-2 secretion measured by ELISA assay; format: functional, T cell line
[18] = Induction of anti-CD3 antibodies-stimulated human T cell activation at 8 uM assessed fold increase in IL-2 secretion measured by ELISA assay; format: functional, T cell line; further: reference of the scale not given here
[19] = Induction of anti-CD3/CD28 antibodies-stimulated human T cell activation at 4 uM assessed fold increase in CD25 expression measured by ELISA assay; format: functional, T cell line
[20] = Induction of anti-CD3 antibodies-stimulated human T cell activation at 8 uM assessed fold increase in CD25 expression measured by ELISA assay; format: functional, T cell line; further: reference of the scale not given here
[21] = Induction of activation of human CD56+ CD3- NK cells co-cultured with human K562 cells in 5:1 ratio and assessed as increase in IFN-gamma secretion at 10 uM measured by ELISA assay; format: functional, Natural killer cell
[22] = Induction of activation of human CD56+ CD3- NK cells co-cultured with human K562 cells in 5:1 ratio and assessed as increase in IFN-gamma secretion at 1 uM measured by ELISA assay; format: functional, Natural killer cell
[23] = Induction of activation of human CD56+ CD3- NK cells co-cultured with human K562 cells in 1:1 ratio and assessed as increase in IFN-gamma secretion at 10 uM measured by ELISA assay; format: functional, Natural killer cell
[24] = Induction of activation of human CD56+ CD3- NK cells co-cultured with human K562 cells in 1:1 ratio and assessed as increase in IFN-gamma secretion at 1 uM measured by ELISA assay; format: functional, Natural killer cell
[25] = Induction of activation of human CD56+ CD3- NK cells co-cultured with human K562 cells in 5:1 ratio and assessed as increase in TNF-alpha secretion at 10 uM measured by ELISA assay; format: functional, Natural killer cell
[26] = Induction of activation of human CD56+ CD3- NK cells co-cultured with human K562 cells in 5:1 ratio and assessed as increase in TNF-alpha secretion at 1 uM measured by ELISA assay; format: functional, Natural killer cell
[27] = Induction of activation of human CD56+ CD3- NK cells co-cultured with human K562 cells in 1:1 ratio and assessed as increase in TNF-alpha secretion at 10 uM measured by ELISA assay; format: functional, Natural killer cell
[28] = Induction of activation of human CD56+ CD3- NK cells co-cultured with human K562 cells in 1:1 ratio and assessed as increase in TNF-alpha secretion at 1 uM measured by ELISA assay; format: functional, Natural killer cell
[29] = Induction of activation of human CD56+ CD3- NK cells co-cultured with human K562 cells in 5:1 ratio and assessed as increase in MIP1beta secretion at 10 uM measured by ELISA assay; format: functional, Natural killer cell
[30] = Induction of activation of human CD56+ CD3- NK cells co-cultured with human K562 cells in 5:1 ratio and assessed as increase in MIP1beta secretion at 1 uM measured by ELISA assay; format: functional, Natural killer cell
[31] = Induction of activation of human CD56+ CD3- NK cells co-cultured with human K562 cells in 1:1 ratio and assessed as increase in MIP1beta secretion at 10 uM measured by ELISA assay; format: functional, Natural killer cell
[32] = Induction of activation of human CD56+ CD3- NK cells co-cultured with human K562 cells in 1:1 ratio and assessed as increase in MIP1beta secretion at 1 uM measured by ELISA assay; format: functional, Natural killer cell
[33] = Induction of anti-CD3 antibodies-stimulated human CD8+ T cell activation in immunocompetent mouse assessed fold increase in CD25 expression at 45 mg/kg, po administered twice a day; format: functional; further: reference of the scale not given here

T1 sequence (Q13191 whole entry, the tested form may be a part): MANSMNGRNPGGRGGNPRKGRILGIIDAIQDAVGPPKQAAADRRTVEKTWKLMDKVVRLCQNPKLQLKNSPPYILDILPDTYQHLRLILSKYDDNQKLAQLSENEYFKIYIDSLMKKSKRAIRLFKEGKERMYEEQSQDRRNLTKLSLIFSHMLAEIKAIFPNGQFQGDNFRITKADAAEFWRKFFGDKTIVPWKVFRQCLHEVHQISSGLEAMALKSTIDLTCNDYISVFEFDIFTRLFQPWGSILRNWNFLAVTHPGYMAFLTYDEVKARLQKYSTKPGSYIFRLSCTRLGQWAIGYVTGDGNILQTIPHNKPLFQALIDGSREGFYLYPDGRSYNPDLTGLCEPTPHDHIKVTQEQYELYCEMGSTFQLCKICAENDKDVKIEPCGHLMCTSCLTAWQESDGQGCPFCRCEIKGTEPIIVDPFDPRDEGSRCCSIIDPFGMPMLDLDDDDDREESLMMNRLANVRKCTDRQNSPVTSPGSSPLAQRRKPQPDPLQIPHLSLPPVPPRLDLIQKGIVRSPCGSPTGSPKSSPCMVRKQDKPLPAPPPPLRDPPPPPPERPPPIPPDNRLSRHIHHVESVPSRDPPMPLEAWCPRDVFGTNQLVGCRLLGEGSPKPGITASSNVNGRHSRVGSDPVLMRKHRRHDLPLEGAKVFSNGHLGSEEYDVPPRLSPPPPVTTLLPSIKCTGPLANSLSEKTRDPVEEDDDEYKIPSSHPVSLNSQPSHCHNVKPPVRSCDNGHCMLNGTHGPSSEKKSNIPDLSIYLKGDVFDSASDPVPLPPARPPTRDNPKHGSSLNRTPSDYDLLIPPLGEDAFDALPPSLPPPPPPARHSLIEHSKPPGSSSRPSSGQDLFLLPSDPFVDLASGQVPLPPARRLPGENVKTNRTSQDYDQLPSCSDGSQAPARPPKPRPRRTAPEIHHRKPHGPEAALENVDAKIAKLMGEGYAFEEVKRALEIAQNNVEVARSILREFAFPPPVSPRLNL

| SMILES | IC50 [1] | Kd [2] | IC50 [3] | fold change (FC) [4] | fold change (FC) [5] | fold change (FC) [6] | fold change (FC) [7] | fold change (FC) [8] | fold change (FC) [9] | fold change (FC) [17] | fold change (FC) [18] | fold change (FC) [19] | fold change (FC) [20] | also measured |
| --- | --- | --- | --- | --- | --- | --- | --- | --- | --- | --- | --- | --- | --- | --- |
| COc1ccccc1C(=O)Nc1cccc(C(C)Sc2nncn2C)c1 (stereo not given) | > 10 µM | > 10 µM | – | – | – | – | – | – | – | – | – | – | – | – |
| CC(Sc1nncn1C)c1cccc(NC(=O)c2ccccn2)c1 (stereo not given) | ≥ 3 µM | > 10 µM | – | – | – | – | – | – | – | – | – | – | – | – |
| Cn1cnnc1CC1(c2cccc(N3Cc4c(cc(CN5CCC(C)(F)CC5)cc4C(F)(F)F)C3=O)c2)COC1 | – | < 0.1 µM | < 0.1 µM | >=7.5 | >=7.5 | >=0.201 | 1.31 | 1.31 | >=1.001 | – | – | – | – | fold change (FC) [10]: 1; fold change (FC) [11]: 1; fold change (FC) [12]: 1; fold change (FC) [13]: 1; fold change (FC) [14]: 1; fold change (FC) [15]: <1; fold change (FC) [16]: <1 |
| COc1ccc(C(=O)Nc2cccc(C(C)Sc3nncn3C)c2)cc1 (stereo not given) | > 10 µM | > 10 µM | – | – | – | – | – | – | – | – | – | – | – | – |
| Cn1cnnc1C(F)(F)[C@](C)(F)c1cccc(N2Cc3c(cccc3C(F)(F)F)C2=O)c1 | – | – | – | 1.01 | 1.01 | 0.151 | 1.01 | 1.01 | 0.601 | 2.51 | >=0.201 | 1.01 | >=1.001 | fold change (FC) [21]: 1.01; fold change (FC) [22]: <=1; fold change (FC) [23]: 2.01; fold change (FC) [24]: 1.01; fold change (FC) [25]: <=1; fold change (FC) [26]: <=1; fold change (FC) [27]: 1.01; fold change (FC) [28]: <=1; fold change (FC) [29]: <=1; fold change (FC) [30]: <=1; fold change (FC) [31]: <=1; fold change (FC) [32]: <=1 |
| Cc1nc2cc(C(C)Sc3nncn3C)cc(N)c2o1 (stereo not given) | ≥ 3 µM | ≥ 3 µM | – | – | – | – | – | – | – | – | – | – | – | – |
| C[C@@H](Cc1nncn1C)c1cccc(N2Cc3c(cccc3C(F)(F)F)C2=O)c1 | – | – | – | – | – | – | – | – | – | – | – | – | – | fold change (FC) [11]: <1; fold change (FC) [12]: <1; fold change (FC) [14]: <1; fold change (FC) [15]: <1; fold change (FC) [16]: <1 |
| CC(Sc1nncn1C)c1cccc(NC(=O)c2ccc3ccccc3n2)c1 (stereo not given) | – | ≥ 1 µM | ≤ 1 µM | 1.01 | 1.01 | <=0.05 | <=1 | <=1 | <=0.6 | 2.51 | 0.051 | 1.01 | 0.601 | Kd [1]: ≥ 1 µM |
| C[C@H](Cc1nncn1C)c1cccc(NC(=O)c2cc(C(=O)N3CC[C@H](O)C3)cc(C(F)(F)F)n2)c1 | – | < 0.1 µM | < 0.1 µM | >=7.5 | 2.51 | >=0.201 | 1.51 | 1.31 | >=1.001 | >=7.5 | >=0.201 | >=1.76 | >=1.001 | fold change (FC) [21]: 2.01; fold change (FC) [22]: 1.01; fold change (FC) [23]: 2.01; fold change (FC) [24]: 1.01; fold change (FC) [25]: 2.01; fold change (FC) [26]: 1.01; fold change (FC) [27]: 2.01; fold change (FC) [28]: 1.01; fold change (FC) [29]: 2.01; fold change (FC) [30]: 1.01; fold change (FC) [31]: 2.01; fold change (FC) [32]: 1.01 |
| COc1cccc(C(=O)Nc2cccc(C(C)Sc3nncn3C)c2)c1 (stereo not given) | > 10 µM | > 10 µM | – | – | – | – | – | – | – | – | – | – | – | – |
| CC(Sc1nncn1C)c1cccc(NC(=O)c2ccc3ncccc3c2)c1 (stereo not given) | > 10 µM | > 10 µM | – | – | – | – | – | – | – | – | – | – | – | – |
| CC(Sc1nncn1C)c1cccc(NC(=O)c2cc3ccccc3c(=O)[nH]2)c1 (stereo not given) | > 10 µM | – | – | – | – | – | – | – | – | – | – | – | – | – |
| C[C@H](Sc1nncn1C)c1cccc(NC(=O)c2ccc3ccccc3n2)c1 | ≤ 1 µM | ≥ 1 µM | ≤ 1 µM | 1.01 | 1.01 | <=0.05 | 1.01 | 1.01 | 0.601 | 1.01 | 0.051 | 1.01 | 0.601 | – |
| Cn1cnnc1CC1(c2cccc(N3Cc4c(cc(CN5CC[C@H](F)C5)cc4C(F)(F)F)C3=O)c2)COC1 | – | – | < 0.1 µM | >=7.5 | 5 | >=0.201 | 1.51 | 1.31 | >=1.001 | >=7.5 | >=0.201 | 1.51 | >=1.001 | fold change (FC) [10]: 1; fold change (FC) [11]: 1; fold change (FC) [12]: 1; fold change (FC) [13]: 1; fold change (FC) [14]: 1; fold change (FC) [15]: 1; fold change (FC) [16]: 1 |
| CC(Sc1nncn1C)c1cccc(NC(=O)c2ccc3ccncc3c2)c1 (stereo not given) | > 10 µM | > 10 µM | – | – | – | – | – | – | – | – | – | – | – | – |
| C[C@@H](Sc1nncn1C)c1cccc(NC(=O)c2ccc3ccccc3n2)c1 | > 10 µM | ≥ 3 µM | – | – | – | – | – | – | – | – | – | – | – | fold change (FC) [21]: <=1; fold change (FC) [22]: <=1; fold change (FC) [23]: <=1; fold change (FC) [24]: <=1; fold change (FC) [25]: <=1; fold change (FC) [26]: <=1; fold change (FC) [27]: <=1; fold change (FC) [28]: <=1; fold change (FC) [29]: <=1; fold change (FC) [30]: <=1; fold change (FC) [31]: <=1; fold change (FC) [32]: 1.01 |
| Cn1cnnc1CC1(c2cccc(N3Cc4c(cc(CN5CC[C@@H](C#N)C5)cc4C(F)(F)F)C3=O)c2)COC1 | – | – | < 0.1 µM | >=7.5 | 5 | 0.101 | 1.01 | 1.01 | >=1.001 | >=7.5 | >=0.201 | 1.31 | >=1.001 | fold change (FC) [10]: <1; fold change (FC) [11]: <1; fold change (FC) [12]: <1; fold change (FC) [33]: <1; fold change (FC) [13]: <1; fold change (FC) [14]: <1; fold change (FC) [15]: <1; fold change (FC) [16]: <1 |
| C[C@H](Sc1nncn1C)c1ccnc(N)c1 | ≥ 3 µM | > 10 µM | – | – | – | – | – | – | – | – | – | – | – | – |
